The record followed here is patent US20110112100A1, “Hepatitis C Virus Inhibitors” (priority 2009, published 2011).

The subject of one data set is 1a-H77 replicon cells. The data set is described as follows: HCV 1a replicon inhibitory activity (Renilla luciferase). Type of data set: cell-based, hepatitis C virus. The following applies: Hepatitis C virus, read-out: IC50 value (95% Confidence Intervals) pM Replicon 1A assay. In a few lines:
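Replicon cells in DMEM + 10% FCS incubated 48 hours at 37° C., 5% CO2 with 1-in-3 serial dilutions of compound prepared in DMSO. Replication read as Renilla luciferase luminescence after lysis. EC50 taken from log concentration-response curves.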
(In general: In antiviral work, replicon cells carry a viral genome segment that copies itself.)

The nature of data set [1]: Compound induced cytotoxicity in HCV replicon cell lines (WST-1 reagent). It counts as cell-based. The following applies: human, 1b (con1) HCV replicon cells; WST-1, 48 hours; in 1 experiment. On the procedure: Test compounds were solubilised to 4 mM in 100% DMSO. Dilutions were made to the desired starting concentration in 100% DMSO and then 1 in 3 dilutions made, again in 100% DMSO. 0.5 μl of each sample was added to 384-well assay plates. White Lumitrac (Greiner) plates were used for the 1a and 1b replicon assays and black, clear bottomed (Greiner) plates were used for the WST-1 cytotoxity assay.
1b (con1) replicon cells were resuspended to a concentration of 1.4×10^5 cells/ml by addition of pre-warmed medium (DMEM+10% FCS). 50 μl of this suspension was added to each well of a 384-well assay plate (Black, clear bottomed, Greiner) already containing 0.5 μl of test compound.
All plates were covered with gas permeable seals and incubated at 37° C., 5% CO2 for 48 hours. After 48 hours, 5 μl WST-1 reagent (Roche, 11 644 807 001) was added to each well and the plate returned to the incubator for 3 hours. After this incubation period absorbance was read at 450 nm on an EnVision (Perkin Elmer) plate reader. The half maximal cytotoxic concentration (CC50) values were calculated for each compound by constructing log concentration-response curves.
All of the exemplified compounds have been screened in a cell proliferation assay (WST-1). A majority have […] in at least 2 independent experiments, the exceptions being the compounds of examples 1, 10, 12, 23, 25, 37, 47, 48, 49, 52, 56, 57, 58, 60, 67, 68, 69, 70, 71, 72, 73, 74, 79, 81 and 84 which have CC50 values>2 μM in 1 experiment, and example 20 where the CC50 is reported as >10 nM (in this instance the top concentration tested in the assay was 10 nM).

The subject of a further data set is 1b (con1) replicon cells. The data set is described as follows: HCV 1b replicon inhibitory activity (luciferase, Britelite Plus). The following applies: Hepatitis C virus, read-out: IC50 value (95% Confidence Intervals) pM Replicon 1B assay. Type of data set: cell-based, hepatitis C virus. In a few lines:
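1b (con1) luciferase replicon cells in DMEM + 10% FCS were exposed to 1-in-3 DMSO compound dilutions for 48 h at 37° C, 5% CO2. Luminescence was read 1-15 min after Britelite Plus addition; EC50 came from log concentration-response curves.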

Where [2] appears, read: geometric mean, 95% confidence intervals in parentheses, 48 hours, medium with 10% FCS.

Each structure is given as a SMILES string. Structures can show the parent of a compound that is named as a salt. Where two headings read alike, the source gives them in different places. Some results are limits rather than exact numbers.

In general, IC50 refers to the concentration needed to halve the response being measured. What is called CC50 is the concentration giving 50% cytotoxicity. As to `COC(=O)N[C@H](C(=O)N1CCC[C@H]1c1ncc(-c2ccc3nc(-c4ccc(-c5c[nH]c([C@@H]6CCCN6C(=O)[C@@H](NC(=O)OC)C(C)C)n5)cc4)cnc3c2)[nH]1)c1ccccc1` [Example 56, Methyl {(2S)-1-[(2S)-2-{4-[4-(6-(2-[(2S)-1-{(2S)-2-[(methoxycarbonyl)amino]-2-phenylacetyl}pyrrolidin-2-yl]-1H-imidazol-5-yl}quinoxalin-2-yl)phenyl]-1H-imidazol-2-yl}pyrrolidin-1-yl]-3-methyl-1-oxobutan-2-yl}carbamate trifluoroacetic acid salt], the IC50 with 1a-H77 replicon cells (48 h) worked out at 26.3 pM; with 1b (con1) replicon cells (48 h), 10.2 pM. Besides, the CC50 at 48 h in data set [1] was greater than 2000 nM.

For `COC(=O)N[C@@H](Cc1ccccc1)C(=O)N1CCC[C@H]1c1ncc(-c2ccc3nc(-c4ccc(-c5c[nH]c([C@@H]6CCCN6C(=O)[C@@H](NC(=O)OC)C(C)C)n5)cc4)cnc3c2)[nH]1` [Example 49, Methyl {(2S)-1-[(2S)-2-{5-[2-(4-{2-[(2S)-1-{(2S)-2-[(methoxycarbonyl)amino]-3-methylbutanoyl}pyrrolidin-2-yl]-1H-imidazol-4-yl}phenyl)quinoxalin-6-yl]-1H-imidazol-2-yl}pyrrolidin-1-yl]-1-oxo-3-phenylpropan-2-yl}carbamate trifluoroacetic acid salt], the values for the IC50 in the data set with 1a-H77 replicon cells (48 h) and with 1b (con1) replicon cells (48 h) were 73 pM and 7.27 pM, respectively. For the same compound, the CC50 at 48 h in data set [1] was greater than 2000 nM.

For the compound `COC(=O)N[C@@H](CCc1ccccc1)C(=O)N1CCC[C@H]1c1ncc(-c2ccc3nc(-c4ccc(-c5c[nH]c([C@@H]6CCCN6C(=O)[C@@H](NC(=O)OC)C(C)C)n5)cc4)cnc3c2)[nH]1` [Example 79, Methyl {(2S)-1-[(2S)-2-{5-[2-(4-{2-[(2S)-1-{(2S)-2-[(methoxycarbonyl)amino]-3-methylbutanoyl}pyrrolidin-2-yl]-1H-imidazol-4-yl}phenyl)quinoxalin-6-yl]-1H-imidazol-2-yl]pyrrolidin-1-yl]-1-oxo-4-phenylbutan-2-yl}carbamate trifluoroacetic acid salt], the IC50 with 1a-H77 replicon cells (48 h) amounted to 47.6 pM; with 1b (con1) replicon cells (48 h), 11.7 pM. In addition, the CC50 at 48 h in data set [1] was greater than 2000 nM.

Take `COC(=O)N[C@H](C(=O)N1CCC[C@H]1c1nc(-c2ccc(-c3cnc4cc(-c5cnc([C@@H]6CCCN6C(=O)[C@H](NC(=O)OC)C(C)(C)C)[nH]5)ccc4n3)cc2)c[nH]1)C(C)C` [Example 73, Methyl {(2S)-1-[(2S)-2-{4-[4-(6-{2-[(2S)-1-{(2R)-2-[(methoxycarbonyl)amino]-3,3-dimethylbutanoyl}pyrrolidin-2-yl]-1H-imidazol-5-yl}quinoxalin-2-yl)phenyl]-1H-imidazol-2-yl}pyrrolidin-1-yl]-3-methyl-1-oxobutan-2-yl}carbamate trifluoroacetic acid salt]: the values for the IC50 with 1a-H77 replicon cells (48 h) and in the data set on 1b (con1) replicon cells (48 h) were 13.3 pM and 8.11 pM, respectively. The compound also registered a CC50 at 48 h in data set [1] greater than 2000 nM.

With `COC(=O)N[C@H](C(=O)N1CCC[C@H]1c1nc(-c2ccc3nc(-c4ccc(-c5cnc([C@@H]6CCCN6C(=O)[C@@H](NC(=O)OC)C(C)C)[nH]5)cc4)cc(C#N)c3c2)c[nH]1)C(C)C` [Example 23, Methyl {(2S)-1-[(2S)-2-{5-[4-(4-cyano-6-{2-[(2S)-1-{(2S)-2-[(methoxycarbonyl)amino]-3-methylbutanoyl}pyrrolidin-2-yl]-1H-imidazol-4-yl}quinolin-2-yl)phenyl]-1H-imidazol-2-yl}pyrrolidin-1-yl]-3-methyl-1-oxobutan-2-yl}carbamate], the figures for the IC50 in the data set with 1a-H77 replicon cells (setting [2]) and in the data set on 1b (con1) replicon cells (setting [2]) were 5450 pM and 58.4 pM, respectively. The compound also yielded a CC50 at 48 h in data set [1] greater than 2000 nM.

On to `COC(=O)N[C@H](C(=O)N1CCC[C@H]1c1nc(-c2ccc(-c3cnc4cc(-c5cnc([C@@H]6CCCN6C(=O)[C@H](NC(=O)OC)c6ccccc6)[nH]5)ccc4n3)cc2)c[nH]1)C(C)C` [Example 84, Methyl {(2S)-1-[(2S)-2-{4-[4-(6-{2-[(2S)-1-{(2R)-2-[(methoxycarbonyl)amino]-2-phenylacetyl}pyrrolidin-2-yl]-1H-imidazol-5-yl}quinoxalin-2-yl)phenyl]-1H-imidazol-2-yl}pyrrolidin-1-yl]-3-methyl-1-oxobutan-2-yl}carbamate trifluoroacetic acid salt], for which the values for the IC50 with 1a-H77 replicon cells (48 h) and in the data set with 1b (con1) replicon cells (48 h) were 19 pM and 10.9 pM, respectively. The CC50 at 48 h in data set [1] was greater than 2000 nM.

As for `COC(=O)NC(C(=O)N1CCC[C@H]1c1ncc(-c2ccc3nc(-c4ccc(-c5c[nH]c([C@@H]6CCCN6C(=O)[C@@H](NC(=O)OC)C(C)C)n5)cc4)cnc3c2)[nH]1)C1CCOCC1` (stereo partly drawn) [Example 71, Methyl {(2S)-1-[(2S)-2-{4-[4-(6-{2-[(2S)-1-{[(methoxycarbonyl)amino](tetrahydro-2H-pyran-4-yl)acetyl}pyrrolidin-2-yl]-1H-imidazol-5-yl}quinoxalin-2-yl)phenyl]-1H-imidazol-2-yl}pyrrolidin-1-yl]-3-methyl-1-oxobutan-2-yl}carbamate], the results for the IC50 in the data set with 1a-H77 replicon cells (setting [2]) and in the data set on 1b (con1) replicon cells (setting [2]) were 30.7 pM and 23.7 pM, respectively. The compound also came in with a 50% cytotoxic concentration (CC50) at 48 h in data set [1] greater than 2000 nM.

Regarding `COC(=O)N[C@H](C(=O)N1CCC[C@H]1c1nc(-c2ccc(-c3cnc4cc(-c5cnc([C@@H]6CCCN6C(=O)[C@H](Cc6ccccc6)NC(C)=O)[nH]5)ccc4n3)cc2)c[nH]1)C(C)C` [Example 47, Methyl {(2S)-1-[(2S)-2-{4-[4-(6-{2-[(2S)-1-(N-acetyl-L-phenylalanyl)pyrrolidin-2-yl]-1H-imidazol-5-yl}quinoxalin-2-yl)phenyl]-1H-imidazol-2-yl}pyrrolidin-1-yl]-3-methyl-1-oxobutan-2-yl}carbamate trifluoroacetic acid salt], the IC50 was 6850 pM with 1a-H77 replicon cells (48 h) and 52.8 pM in the data set on 1b (con1) replicon cells (48 h). This compound displayed a CC50 at 48 h in data set [1] greater than 2000 nM.

For `CCC[C@H](NC(C)=O)C(=O)N1CCC[C@H]1c1ncc(-c2ccc3nc(-c4ccc(-c5c[nH]c([C@@H]6CCCN6C(=O)[C@@H](NC(=O)OC)C(C)C)n5)cc4)cnc3c2)[nH]1` [Example 37, Methyl {(2S)-1-[(2S)-2-{4-{4-[6-(2-{(2S)-1-(N-acetyl-L-norvalyl)pyrrolidin-2-yl]-1H-imidazol-5-yl)quinoxalin-2-yl)phenyl]-1H-imidazol-2-yl}pyrrolidin-1-yl]-3-methyl-1-oxobutan-2-yl}carbamate trifluoroacetic acid salt], the IC50 was 284 pM in the data set with 1a-H77 replicon cells (48 h) and 42.9 pM with 1b (con1) replicon cells (48 h). The CC50 at 48 h in data set [1] was greater than 2000 nM.

For `COC(=O)N[C@@H](CCS(C)(=O)=O)C(=O)N1CCC[C@H]1c1ncc(-c2ccc3nc(-c4ccc(-c5c[nH]c([C@@H]6CCCN6C(=O)[C@@H](NC(=O)OC)C(C)C)n5)cc4)cnc3c2)[nH]1` [Example 67, methyl [(2S)-1-[(2S)-2-{5-[2-(4-{2-[(2S)-1-{(2S)-2-[(methoxycarbonyl)amino]-3-methylbutanoyl}pyrrolidin-2-yl]-1H-imidazol-4-yl}phenyl)quinoxalin-6-yl]-1H-imidazol-2-yl}pyrrolidin-1-yl]-4-(methylsulfonyl)-1-oxobutan-2-yl]carbamate trifluoroacetic acid salt], the IC50 in the data set on 1a-H77 replicon cells (48 h) is 27.5 pM; with 1b (con1) replicon cells (48 h) it was 74.8 pM. Further, the CC50 at 48 h in data set [1] was greater than 2000 nM.

Turning to `COC(=O)N[C@H](C(=O)N1CCC[C@H]1c1nc(-c2ccc(-c3cnc4cc(-c5cnc([C@@H]6CCCN6C(=O)[C@@H](NC(=O)OC)[C@@H](C)OC(C)(C)C)[nH]5)ccc4n3)cc2)c[nH]1)C(C)C` [Example 74, Methyl {(2S)-1-[(2S)-2-{4-[4-(6-{2-[(2S)-1-{(2S,3R)-3-tert-butoxy-2-[(methoxycarbonyl)amino]butanoyl}pyrrolidin-2-yl]-1H-imidazol-5-yl}quinoxalin-2-yl)phenyl]-1H-imidazol-2-yl}pyrrolidin-1-yl]-3-methyl-1-oxobutan-2-yl)carbamate], the IC50 in the data set with 1a-H77 replicon cells (setting [2]) turned out to be 43.7 pM; with 1b (con1) replicon cells (setting [2]), 14.2 pM. The CC50 at 48 h in data set [1] was greater than 2000 nM.
